Experimental data reported in patent US20240287525A1, “COMPOSITIONS AND METHODS FOR TREATING CANCER” (OSLO UNIVERSITETSSYKEHUS HF, priority 2021, published 2024).

Tested on: MTHFD2
Assay: MTHFD2 knockdown efficiency by qPCR and Western analyses after siRNA transfection
Type: cell-based
Settings: LNCaP cells, mRNA by qRT-PCR
Experimental: FIG. 1: MTHFD2 knockdown inhibits growth of PCa cells, PDX-derived organoids, and tumor xenografts. A. MTHFD2 knockdown efficiency was determined in LNCaP and DU145 cells that were transfected with either scrambled siRNA or two independent MTHFD2-specific siRNAs for 48 hours by both qPCR and Western analyses. B. LNCaP, VCaP, or 22Rv1 cells transfected with control or MTHFD2-specific siRNAs were cultured for the indicated times, and cell numbers were determined by trypan blue staining. *p<0.01. MTHFD2 knockdown hinders colony (C-D) and prostatosphere (E) formation ability of PCa cells. F. Viability of normal prostate cells is not affected by MTHFD2 knockdown. G. MTHFD2 expression and knockdown efficiency in various LuCaP organoids were assessed by Western analysis.
FIG. 4: A. LNCaP cells were transfected with MTHFD2 (siMTHFD2 #1) or non-targeting control siRNAs. Cells were cultured for the indicated time points, collected, and MTHFD2 mRNA levels were determined by qRT-PCR. […] B. LNCaP and DU145 cells were reverse transfected with either control siRNA or two independent siRNAs against MTHFD2. After 48 hours, relative cell viability was determined using the CCK8 assay. C. Bar graph showing quantification of PDX derived organoids representing the number of organoids per field in FIG. 1H.
Briefly, cells were reverse transfected using Lipofectamine RNAiMAX transfection reagent (ThermoFisher) and plated into 96-well or 6-well plates. Cells in 6-well plates were cultured for the indicated times, trypsinized, stained with trypan blue, and counted using a hemocytometer. […] Cells plated into the 96-well plates were cultured for 48 hrs and cell viability was measured using the CCK-8 kit (Bimake, Munich, Germany).
RNA extraction, reverse transcription and quantitative polymerase chain reaction (qPCR) were performed as described previously (Sheng X, Arnoldussen Y J, Storm M. Tesikova M, Nenseth H Z, Zhao S, et al. Divergent androgen regulation of unfolded protein response pathways drives prostate cancer. EMBO Mol Med 2015; 7:788-801). […]

Substance: siMTHFD2-2: MTHFD2-specific siRNA CAGGCCAGCTCAAGAAGCAAA; location 1140; positive control in Example 3 (chain 2 CAGGCCAGCUCAAGAAGCAAA; chemistry not given here; one strand in two spellings)
- MTHFD2 knockdown, maximal (72 hours post-transfection): ~80%
- return of MTHFD2 to basal levels (time course after transfection): ≤ 12 days
- time MTHFD2 remained significantly downregulated (time course after transfection): more than one week
